Test [1] has as its system pyramidal cells in the basolateral nucleus of amygdala. In words: Patch-clamp in brain slices: depolarization-induced suppression of excitation (DSE). The test is classed as cell-based. Set-up: unit of the concentration uncertain. The conditions noted are these: both groups of mice. From the text:
Patch-clamp recordings from pyramidal cells in the amygdala were taken in accordance with the methods described in Non-Patent Documents 21 and 22. […] The access resistance was frequently checked during recording and any cells that experienced substantial changes (±20%) in its value during recording were excluded from analysis.
Whole-cell patch recordings were taken from pyramidal cells in the basolateral nucleus of amygdala. A bipolar glass electrode filled with an artificial cerebrospinal fluid was placed in the vicinity of the cell to be recorded and an electric stimulus was applied to the slice. First, the evoked excitatory postsynaptic current (eEPSC) was recorded from neurons in the amygdala. Subsequently, the cell being recorded was depolarized for 10 seconds and, immediately thereafter, eEPSC was recorded again. The ratio of the amplitude of eEPSC after depolarization (Ipost) to that of EPSC before depolarization (Ipre) (Ipost/Ipre) was calculated, and was used to assess the degree of DSE. In addition, to confirm the cannabinoid receptor dependency of DSE, recording was conducted with a brain slice immersed in an artificial cerebrospinal fluid containing rimonabant (5 mM). […] Thus, DSE was recorded in a brain slice immersed in an artificial cerebrospinal fluid containing capsaicin (10 mM) and the resulting changes were also studied.

The test system of a further test is fear memory in mice. The experiment in a line: Fear conditioning test (freezing time). Type of test: in vivo. The following applies: administered 30 minutes before fear conditioning, 5% krill oil diet 6 weeks. An excerpt:
The present inventors evaluated the actions of food ingredients on fear memory by the “fear conditioning experiment” (J Neurosci 27 158-166, 2007) which is extensively used as an evaluation system for fear memory in mice.
A cubic experimental box made of acrylic resin having a bottom of 20 cm×20 cm and a height of 33 cm, with a conductive metallic grid being laid across the bottom, was used as a new environment for conditioning; each mouse was put into the experimental box and conditioned by applying electric shocks (0.8 mA, 2 s) from the bottom grid. Feeling an intense pain from each electric shock, a mouse memorizes that when placed in the new environment, it will suffer pain from electric shocks. The mice were then returned to the breeding cage where they had been kept before the conditioning.
On the next day (the second day of the behavioral experiment), each mouse was put again into the experimental box where it was given electric shocks on the previous day; even in the absence of applied electric shocks, it would be scared to cringe, a characteristic freezing behavior from fear. The degree of fear memory was assessed by the degree of the freezing behavior, namely, the freezing time during a 3-minute exposure to the experimental box. […]

SMILES strings stand for the structures.

As to `Cc1c(C(=O)NN2CCCCC2)nn(-c2ccc(Cl)cc2Cl)c1-c1ccc(Cl)cc1` [rimonabant], in test [1] (brain slice in artificial cerebrospinal fluid containing rimonabant (5 (unit uncertain))), the “effect on DSE” value was “suppressed DSE almost completely”. In addition, the “freezing time, rimonabant-administered krill oil group vs solvent-administered control group” value with fear memory in mice (Test Example 11, FIG. 12) is reported as “No significant difference”. Take `C=CCN1CC[C@]23c4c5ccc(O)c4O[C@H]2C(=O)CC[C@@]3(O)[C@H]1C5` [naloxone]: the “freezing time, naloxone-administered krill oil group vs solvent-administered krill group” value in the test on fear memory in mice (Test Example 12, FIG. 13) is listed as “no difference in freezing time”. As for `COc1cc(CNC(=O)CCCC/C=C/C(C)C)ccc1O` [capsaicin], in test [1] (brain slice in artificial cerebrospinal fluid containing capsaicin (10 (unit uncertain))), the “effect on DSE” value was “suppress DSE”.

(Values after patent US9107891B2, “Method for alleviating fear memory” (NIPPON SUISAN KAISHA, LTD., priority 2011, dated 2015).)
